Reference: patent US9371265B2, “Compositions and methods related to inhibitors of JAK kinase” (EP PHARMA, INC., priority 2012, dated 2016)

Tests used:
[1] = target: TSSK1B (Homo sapiens, UniProt Q9BXA7); assay: Kinase panel: TSSK1B; format: biochemical; conditions: 10 μM EP009
Procedure: (§1) Achieving JAK3 selectivity remains a significant challenge in the development of new small molecules for the treatment of cancer and immune-derived diseases. As such, the inventors employed cell-based screening assays of small-molecule libraries based upon the chemical scaffold of the established JAK3 inhibitor NC1153 (Stepkowski et al., J Immunol. (2005), 175(7):4236-4246) EP009 (FIG. 2A) was selected as a lead compound due to improved intrinsic stability (>95% purity in various solvents at 37° C. for 24 hours; FIG. 3) and high-degree of JAK3 selectivity. To test JAK3 versus JAK2 specificity of EP009, the IL-2/JAK3-dependent Kit225, and IL-3/JAK2-dependent BaF/3 cell lines were used. Kit225 and BaF/3 cells growing in the presence of IL-2 or IL-3, respectively, were treated with ascending concentrations of EP009 for 12 hours and cellular JAK3 and JAK2 tyrosine phosphorylation levels detected by Western blot analysis (FIGS. 2B and 2C). Following densitometric analysis, EP009 was determined to dose-dependently reduce IL-2-mediated JAK3 tyrosine phosphorylation with a cellular 50% inhibitory concentration (IC50) between 10 and 20 μM (FIG. 2B). […] To globally evaluate specificity, the inhibitory activity of EP009 was measured against a panel of protein kinases distributed throughout the kinome using the scanEDGE profiling service (KINOMEscan). […]

[2] = target: IGF1R (Homo sapiens, UniProt P08069); assay: Kinase panel: IGF1R; format: biochemical; conditions: 10 μM EP009
Procedure: as §1

[3] = target: AKT1 (Homo sapiens, UniProt P31749); assay: Kinase panel: AKT1; format: biochemical; conditions: 10 μM EP009
Procedure: as §1

[4] = target: PIM3 (Homo sapiens, UniProt Q86V86); assay: Kinase panel: PIM3; format: biochemical; conditions: 10 μM EP009
Procedure: as §1

[5] = tested on: JNK1/2; assay: Phospho-JNK1/2 in SU-DHL-1 cells (Luminex multiplex); format: cell-based, human; conditions: 24 hours, dose-dependent
Procedure: FIGS. 8A-8F. Effect of EP009 on ALCL cells is mediated through selective activation of ERK1/2 and JNK1/2 stress signaling pathways, and inhibition of p70 S6 kinase growth signaling pathways. SU-DHL-1 cells were treated with vehicle (PBS) or increasing amounts of EP009 (0-50 μM) for 24 hours. Cells were then lysed, clarified, and subjected to Luminex multiplex analysis to detect phosphorylated (A) ERK1/2, (B) JNK1/2, (C) p70 S6 kinase, (D) IκBα, (E) CREB, and (F) p38. Values represent mean fluorescence intensity (MFI) normalized to corresponding GAPDH MFI, while error bars represent the standard deviation (n=2). Representative data from two independent experiments are shown. Statistical significance was determined using Student's t-test. (*, p<0.05).
The MILLIPLEX MAP 8-plex Multi-Pathway Signaling Phosphoprotein kit (Millipore) was used to detect phosphorylated ERK1/2 (Thr185/Tyr187), STAT3 (Ser727), JNK1/2 (Thr183/Tyr185), p70 S6 kinase (Thr412), IκBα (Ser32), STAT5A/B (Tyr694/699), CREB (Ser133), and p38 (Thr180/Tyr182). The MILLIPLEX MAP 5-plex STAT Phosphoprotein kit (Millipore) was used to detect phosphorylated STAT1 (Tyr701), STAT2 (Tyr690), STAT3 (Tyr705), STAT5A/B (Tyr694/699), and STAT6 (Tyr641). The MILLIPLEX MAP Human Apoptosis 3-plex kit (Millipore) was used to detect cleaved PARP, cleaved Caspase 3, and total GAPDH for protein normalization.

Chain of TSSK1B (Q9BXA7 whole entry): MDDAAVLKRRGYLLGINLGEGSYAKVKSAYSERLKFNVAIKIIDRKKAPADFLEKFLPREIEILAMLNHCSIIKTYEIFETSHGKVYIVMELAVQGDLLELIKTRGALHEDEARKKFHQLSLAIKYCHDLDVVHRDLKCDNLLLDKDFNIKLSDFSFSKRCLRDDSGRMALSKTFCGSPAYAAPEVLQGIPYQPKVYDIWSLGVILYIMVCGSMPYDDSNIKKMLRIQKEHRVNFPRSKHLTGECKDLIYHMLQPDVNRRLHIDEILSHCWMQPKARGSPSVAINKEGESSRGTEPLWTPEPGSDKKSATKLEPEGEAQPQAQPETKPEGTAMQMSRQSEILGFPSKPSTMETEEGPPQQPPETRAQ
Chain of AKT1 (P31749 whole entry): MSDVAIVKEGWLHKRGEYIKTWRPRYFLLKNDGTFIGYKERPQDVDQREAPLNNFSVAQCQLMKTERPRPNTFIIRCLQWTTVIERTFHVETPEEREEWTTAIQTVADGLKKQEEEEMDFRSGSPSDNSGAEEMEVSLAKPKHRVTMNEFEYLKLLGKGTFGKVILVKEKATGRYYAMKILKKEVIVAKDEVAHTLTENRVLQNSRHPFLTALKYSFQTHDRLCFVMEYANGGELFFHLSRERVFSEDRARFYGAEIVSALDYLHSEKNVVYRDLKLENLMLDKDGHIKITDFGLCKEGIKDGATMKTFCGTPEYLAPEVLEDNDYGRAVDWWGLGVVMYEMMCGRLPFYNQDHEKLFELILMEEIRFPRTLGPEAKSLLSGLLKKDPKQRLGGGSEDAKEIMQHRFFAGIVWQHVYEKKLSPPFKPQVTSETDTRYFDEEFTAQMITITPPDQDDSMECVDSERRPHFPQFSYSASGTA
Chain of IGF1R (P08069 31-1367): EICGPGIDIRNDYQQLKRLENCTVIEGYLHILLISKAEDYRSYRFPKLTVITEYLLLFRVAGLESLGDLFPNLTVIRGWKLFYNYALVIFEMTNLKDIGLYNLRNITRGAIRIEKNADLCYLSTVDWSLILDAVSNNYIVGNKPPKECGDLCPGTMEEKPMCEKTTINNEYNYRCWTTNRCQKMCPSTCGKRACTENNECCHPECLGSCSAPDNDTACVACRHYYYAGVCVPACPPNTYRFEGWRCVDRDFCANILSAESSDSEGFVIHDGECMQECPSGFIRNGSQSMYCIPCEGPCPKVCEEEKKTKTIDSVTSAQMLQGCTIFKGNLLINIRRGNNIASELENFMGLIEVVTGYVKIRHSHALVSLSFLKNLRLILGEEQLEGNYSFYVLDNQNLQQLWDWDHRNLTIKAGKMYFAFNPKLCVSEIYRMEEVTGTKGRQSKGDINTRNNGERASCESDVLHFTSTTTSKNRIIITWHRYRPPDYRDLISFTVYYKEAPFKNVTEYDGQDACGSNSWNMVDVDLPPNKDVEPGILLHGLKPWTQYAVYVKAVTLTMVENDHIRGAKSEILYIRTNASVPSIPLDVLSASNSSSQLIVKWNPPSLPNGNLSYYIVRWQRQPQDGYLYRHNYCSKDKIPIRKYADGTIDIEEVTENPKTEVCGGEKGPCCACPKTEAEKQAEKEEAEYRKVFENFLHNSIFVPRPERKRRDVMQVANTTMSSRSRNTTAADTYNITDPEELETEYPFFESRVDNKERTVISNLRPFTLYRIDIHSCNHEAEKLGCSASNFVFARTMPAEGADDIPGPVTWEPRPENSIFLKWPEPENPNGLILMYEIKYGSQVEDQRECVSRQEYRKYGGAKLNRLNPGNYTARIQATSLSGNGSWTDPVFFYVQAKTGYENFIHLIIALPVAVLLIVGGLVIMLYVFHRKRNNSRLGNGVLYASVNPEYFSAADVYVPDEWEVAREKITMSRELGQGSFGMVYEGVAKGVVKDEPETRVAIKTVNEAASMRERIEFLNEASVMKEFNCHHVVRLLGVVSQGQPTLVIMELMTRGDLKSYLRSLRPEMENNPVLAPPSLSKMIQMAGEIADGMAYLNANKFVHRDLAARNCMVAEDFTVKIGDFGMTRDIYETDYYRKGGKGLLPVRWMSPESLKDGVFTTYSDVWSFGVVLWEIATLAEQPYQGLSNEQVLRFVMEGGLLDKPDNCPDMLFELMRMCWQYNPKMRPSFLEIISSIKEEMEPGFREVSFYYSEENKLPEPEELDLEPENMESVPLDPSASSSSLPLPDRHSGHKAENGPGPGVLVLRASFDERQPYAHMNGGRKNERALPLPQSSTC

C=C1CCCCCCCCCC(CO)C1=O (centres unmarked) [EP009, 2-(Hydroxymethyl)-12-methylenecyclododecanone]
Kinase Activity (% of Control) [1]: 98 % of Control
Kinase Activity (% of Control) [2]: 100 % of Control
Kinase Activity (% of Control) [3]: 100 % of Control
Kinase Activity (% of Control) [4]: 100 % of Control
JNK1/2 phosphorylation [5]: induced phosphorylation and activation
